Experimental data taken from paper PMC11931052, “Efficacy of dispirotripiperazine PDSTP in a golden Syrian hamster model of SARS-CoV-2 infection” (Frontiers in Microbiology, 2025).

Key:
[1] = system: SARS-COV-2 PV10734; assay: Time-of-addition and cell pre-treatment assay in Vero cells; format: cell-based
[2] = system: HCoV-229E; assay: Plaque reduction assay, HCoV-229E in Vero E6 cells; format: cell-based; conditions: Human coronavirus 229E, Vero C1008, Vero E6, mean ± SD, read-out: Antiviral activity IC50 against coronaviruses, HCoV-229E, PR
Protocol: (§1) Vero E6 cells were incubated in the presence of PDSTP and reference compounds (100.0, 20.0, 4.0, and 0.8 μM concentrations) for 1 h at 37°C in a 5% CO2 and then infected for 1 h with 250 μL of the corresponding virus (SARS-CoV-2 PV10734 or HCoV-229E) dilutions to obtain 50–100 PFU/well. The plates were then incubated for 1 h at 37°C in a 5% CO2 atmosphere. Following the removal of the unabsorbed virus, 400 μL of the medium (D-MEM with L-glutamine, 4,500 mg/L D-glucose, and 1% inactivated FBS) containing 0.75% methyl-cellulose (M0512, viscosity 4,000 cP, Sigma-Aldrich, United States) and the serial dilutions of the compounds were added and incubated for 4 (SARS-CoV-2) or 2 (HCoV-229E) days at 37°C in a 5% CO2 atmosphere. Subsequently, the cells were fixed and stained with a 0.2% crystal violet solution (V5265, Sigma-Aldrich, United States) and then the number of plaques was calculated. The degree of cell growth/viability and viral multiplication at each drug concentration tested was expressed as a percentage of the untreated control. Concentrations resulting in 50% inhibition (CC50 or EC50) were determined using linear regression analysis.

[3] = Cytotoxicity (MTT test) in Vero-76 cells; format: cell-based, African Green Monkey (Cercopithecus aethiops); conditions: African green monkey
Protocol: (§2) The microtetrazolium test (MTT test) was used to study the cytotoxicity of the compounds. Vero cells were seeded in 96-well plates at an initial density of 3×10^5 cells/mL, in Gibco Dulbecco’s Modified Eagle Medium supplemented with L-glutamine and 25 mg/L kanamycin, and 10 % fetal bovine serum (FBS) (DMEM, Thermo Fisher Scientific, Waltham, MA USA). Cell cultures were then incubated at 37 °C in a 5 % CO2 atmosphere, in the absence or presence of serial dilutions of test compounds. The test medium used for the cytotoxic assay as well as for the antiviral assay contained 1 % of the appropriate serum. Cell viability was determined after 72 h at 37 °C by the MTT method as previously reported. The cell viability was expressed as a percentage of the control. The 50% cytotoxic concentration (CC50) of each compound was defined as the concentration of the compound that reduced the absorbance (OD570) of the treated cells to 50% when compared with that of untreated cells. CC50 mean values were calculated from at least three independent experiments.

[4] = Cytotoxicity (MTT test) in Vero E6 cell line; format: cell-based, African Green Monkey (Cercopithecus aethiops); conditions: African green monkey, mean ± SD, three independent experiments
Protocol: as §2

[5] = system: SARS-CoV-2 clinical isolate VR PV10734; assay: Plaque reduction assay, SARS-CoV-2 VR PV10734 in Vero E6 cells; format: cell-based; conditions: Severe acute respiratory syndrome coronavirus 2, Vero C1008, mean ± SD, read-out: Antiviral activity IC50 against coronaviruses, SARS-CoV-2 clinical isolate VR PV10734, PR
Protocol: as §1

[6] = system: SARS-CoV-2 clinical isolate 35245; assay: Plaque reduction assay, SARS-CoV-2 35245; format: cell-based; conditions: Severe acute respiratory syndrome coronavirus 2, read-out: Antiviral activity IC50 against coronaviruses, SARS-CoV-2 clinical isolate 35245, PR
[7] = system: SARS-CoV-2 clinical isolate 35245; assay: Microtetrazolium (MTT) test, SARS-CoV-2 35245; format: cell-based; conditions: Severe acute respiratory syndrome coronavirus 2, read-out: Antiviral activity IC50 against coronaviruses, SARS-CoV-2 clinical isolate 35245, MTT
Protocol: The compound’s activity against OC43 and SARS-CoV-235245 was based on the inhibition of virus-induced cytopathogenicity in acutely infected Vero-76 cells (MOI 0.01). Briefly, Vero-76 cells were seeded in 96-well plates at a density of 3 × 10^4 cells/well and incubated in a growth medium in a 5% CO2 at 37°C overnight. Cell monolayers were then infected with 50 μL of the appropriate viral dilution in maintenance medium [D-MEM and MEM-Earl (Gibco, Thermo Fisher Scientific, MA United States) with L-glutamine (Gibco), 1 mM sodium pyruvate (Gibco), and 0.025 g/L kanamycin (Gibco), supplemented with 0.5% inactivated FBS (Harlan Sera-Lab, Loughborough, United Kingdom), respectively] to give an MOI of 0.01, without or with serial dilutions of test samples. After 6 (HCoV-OC43) and 4/5 (SARS-CoV-2) days of incubation at 37°C, the extent of cell viability was quantified using a tetrazolium-based colorimetric method, in which the reduction of 3-(4,5-dimethylthiazol-2-yl)-2,5-diphenyl-tetrazolium bromide (MTT) by mitochondrial dehydrogenases to a soluble colored formazan was measured using a spectrophotometer (Infinity 200, Tecan Austria GmbH, Austria) at 570 nm, as previously reported ([Sanna et al., 2020]).

[8] = system: HCoV-OC43; assay: MTT test, HCoV-OC43 in Vero-76 cells; format: cell-based; conditions: Betacoronavirus 1, OC43, Vero 76, read-out: IC50 (HCoV-OC43)

Compound | Inhibitory effect at the later stages of infection ([1]; addition at 4 and 6 hpi) | IC50 [2] [µM] | CC50 at 72 h [3] [µM] | Antiviral activity after the SARS-CoV-2 entry process [1] | Antiviral activity, pre-treatment and early stages of infection [1] | CC50 at 72 h [4] [µM] | IC50 [5] [µM] | CC50 at 72 h ([3]; Vero-76 cells) [µM] | IC50 [6] [µM] | IC50 [7] [µM] | IC50 [8] [µM] | CC50 at 72 h ([4]; Vero E6 cells) [µM]
heparin | barely noticeable |  |  |  |  |  |  |  |  |  |  | 
CCC(CC)COC(=O)[C@H](C)N[P@](=O)(OC[C@H]1O[C@@](C#N)(c2ccc3c(N)ncnn23)[C@H](O)[C@@H]1O)Oc1ccccc1 [RMD, Remdesivir] |  | 6 ± 2 | > 100 | exerted its antiviral activity | did not affect the early events of the viral life cycle | > 100 | 1.6 ± 0.3 |  |  |  |  | 
CCN(CCO)CCCC(C)Nc1ccnc2cc(Cl)ccc12 (centres unmarked) [HDQ, Hydroxychloroquine, reference compound] |  | 1.6 ± 0.5 |  |  |  |  | 2.4 ± 0.7 | 40 ± 5 | 2.3 ± 0.7 | 11 ± 2.9 | 9.8 ± 1.7 | 40 ± 5
